Results: patent publication US8871681B2, “Herbicidal compositions comprising 4-amino-3-chloro-5-fluoro-6-(4-chloro-2-fluoro-3-methoxyphenyl) pyridine-2-carboxylic acid or a derivative thereof and certain sulfonylureas” (Dow AgroSciences LLC, priority 2012, dated 2014)

Assays:
[1] = tested on: CIRAR (Cirsium arvense, Canada thistle); assay: Post-emergence foliar-applied weed control in cereal crops, greenhouse (Example III); assay type: in vivo, Cirsium arvense (L.) Scop.; conditions: Cirsium arvense, post-emergence; Table 58 (cereal); foliar-applied; after 20-22 days; 3.75 gai/ha alone; read-out: Weed Control CIRAR Obs
Procedure: Seeds of the desired test plant species were planted in Sun Gro MetroMix® 306 planting mixture, which typically has a pH of 6.0 to 6.8 and an organic matter content of about 30 percent, in plastic pots with a surface area of 103.2 square centimeters (cm^2). When required to ensure good germination and healthy plants, a fungicide treatment and/or other chemical or physical treatment was applied. The plants were grown for 7-36 days in a greenhouse with an approximate 14 hour photoperiod which was maintained at about 18° C. during the day and 17° C. during the night. Nutrients and water were added on a regular basis and supplemental lighting was provided with overhead metal halide 1000-Watt lamps as necessary. The plants were employed for testing when they reached the second or third true leaf stage.
Treatments consisted of the benzyl ester of 4-amino-3-chloro-5-fluoro-6-(4-chloro-2-fluoro-3-methoxy-phenyl)pyridine-2-carboxylic acid (Compound A), formulated as an SC (suspension concentrate), and a second cereal herbicide alone and in combination.
Measured aliquot of benzyl ester of 4-amino-3-chloro-5-fluoro-6-(4-chloro-2-fluoro-3-methoxy-phenyl)pyridine-2-carboxylic acid (Compound A) was placed in 25 milliliter (mL) glass vials and diluted in a volume of 1.25% (v/v) Agri-dex crop oil concentrated to obtain stock solutions. Compound requirements are based upon a 12 mL application volume at a rate of 187 liters per hectare (L/ha). Spray solutions of the second cereal herbicide and experimental compound mixtures were prepared by adding the stock solutions to the appropriate amount of dilution solution to form 12 mL spray solution with active ingredients in two- and three-way combinations. Formulated compounds were applied to the plant material with an overhead Mandel track sprayer equipped with an 8002E nozzle calibrated to deliver 187 L/ha over an application area of 0.503 square meters (m^2) at a spray height of 18 inches (46 cm) above average plant canopy. Control plants were sprayed in the same manner with the solvent blank.
The treated plants and control plants were placed in a greenhouse as described above and watered by sub-irrigation to prevent wash-off of the test compounds. After 20-22 days, the condition of the test plants as compared with that of the control plants was determined visually and scored on a scale of 0 to 100 percent where 0 corresponds to no injury and 100 corresponds to complete kill.
Colby's equation was used to determine the herbicidal effects expected from the mixtures (Colby, S. R. 1967. Calculation of the synergistic and antagonistic response of herbicide combinations. Weeds 15:20-22.).
The following equation was used to calculate the expected activity of mixtures containing two active ingredients, A and B: Expected=A+B−(A×B/100)

[2] = tested on: SCPMA (Bolboschoenus maritimus or Schoenoplectus maritimus, sea clubrush); assay: In-water applied weed control, transplanted paddy rice, greenhouse (Example II); assay type: in vivo, Bolboschoenus maritimus (L.) Palla
Procedure: (§1) Weed seeds or nutlets of the desired test plant species were planted in puddled soil (mud) prepared by mixing a shredded, non-sterilized mineral soil (50.5 percent silt, 25.5 percent clay, and 24 percent sand, with a pH of about 7.6 and an organic matter content of about 2.9 percent) and water at a 1:1 volumetric ratio. The prepared mud was dispensed in 365 mL aliquots into 16-ounce (oz.) non-perforated plastic pots with a surface area of 86.59 square centimeters (cm^2) leaving a headspace of 3 centimeters (cm) in each pot. Rice seeds were planted in Sun Gro MetroMix® 306 planting mixture, which typically has a pH of 6.0 to 6.8 and an organic matter content of about 30 percent, in plastic plug trays. Seedlings at the second or third leaf stage of growth were transplanted into 860 mL of mud contained in 32-oz. non-perforated plastic pots with a surface area of 86.59 cm^2 4 days prior to herbicide application. The paddy was created by filling the headspace of the pots with 2.5 to 3 cm of water. When required to ensure good germination and healthy plants, a fungicide treatment and/or other chemical or physical treatment was applied. The plants were grown for 4-22 days in a greenhouse with an approximate 14 h photoperiod which was maintained at about 29′C during the day and 26° C. during the night. Nutrients were added as Osmocote® (19:6:12, N:P:K+minor nutrients) at 2 g per 16-oz. pot and 4 g per 32-oz. pot. Water was added on a regular basis to maintain the paddy flood, and supplemental lighting was provided with overhead metal halide 1000-Watt lamps as necessary. The plants were employed for testing when they reached the first through fourth true leaf stage.
(§2) Treatments consisted of the acid or esters of 4-amino-3-chloro-5-fluoro-6-(4-chloro-2-fluoro-3-methoxy-phenyl)pyridine-2-carboxylic acid (compound A) each formulated as an SC and various herbicidal components alone and in combination. Forms of compound A were applied on an acid equivalent basis.
(§3) Other herbicidal components were applied on an active ingredient basis and included acetolactate synthase (ALS)-inhibiting herbicides (sulfonylurea chemical class), azimsulfuron formulated as Gulliver®, bensulfuron-methyl formulated as Londax® 60DF, cyclosulfamuron (technical grade materail), ethoxysulfuron formulated as Sunrice® 15 WDG, flucetosulfuron formulated as Sukedachi® 1KG G, imazosulfuron formulated as Brazzos®, metsulfuron-methyl formulated as Lorate®, nicosulfuron formulated as Accent®, orthosulfamuron formulated as Strada® WG, propyrisulfuron formulated as Zeta One®, and rimsulfuron formulated as Matrix® WG.
(§4) Treatment requirements for each compound or herbicidal component were calculated based upon the rates being tested, the concentration of active ingredient or acid equivalent in the formulation, an application volume of 2 mL per component per pot, and an application area of 86.59 cm^2 per pot.
(§5) For formulated compounds, a measured amount was placed in an individual 100 or 200 mL glass vial and was dissolved in a volume of 1.25% (v/v) Agri-Dex® crop oil concentrate to obtain application solutions.
(§6) For technical grade compounds, a weighed amount was placed in an individual 100 to 200 mL glass vial and was dissolved in a volume of acetone to obtain concentrated stock solutions. […] The concentrated stock solutions obtained were diluted with an equivalent volume of an aqueous mixture containing 2.5% (v/v) crop oil concentrate so that the final application solutions contained 1.25% (v/v) crop oil concentrate.
(§7) Applications were made by injecting with a pipetter appropriate amounts of the application solutions, individually and sequentially, into the aqueous layer of the paddy. Control plants were treated in the same manner with the solvent blank. Applications were made so that all treated plant material received the same concentrations of acetone and crop oil concentrate. […]

[3] = tested on: LEFCH (Leptochloa chinensis, Chinese sprangletop); assay: Postemergence foliar-applied weed control, direct seeded rice, greenhouse (Example I); assay type: in vivo, Leptochloa chinensis (L.) Nees; conditions: Dinebra chinensis, post-emergence, 480 h, 20 DAA, read-out: Visual Weed Control (%) Obs
From the text: (§8) Seeds or nutlets of the desired test plant species were planted in a soil matrix prepared by mixing a loam or sandy loam soil (e.g., 28.6 percent silt, 18.8 percent clay, and 52.6 percent sand, with a pH of about 5.8 and an organic matter content of about 1.8 percent) and calcareous grit in an 80 to 20 ratio. The soil matrix was contained in plastic pots with a volume of 1 quart and a surface area of 83.6 square centimeters (cm^2). When required to ensure good germination and healthy plants, a fungicide treatment and/or other chemical or physical treatment was applied. The plants were grown for 8-22 days in a greenhouse with an approximate 14 h photoperiod which was maintained at about 29° C. during the day and 26° C. during the night. Nutrients (Peters Excel® 15-5-15 5-Ca 2-Mg and iron chelate) were applied in the irrigation solution as needed and water was added on a regular basis. Supplemental lighting was provided with overhead metal halide 1000-Watt lamps as necessary. The plants were employed for testing when they reached the first through fourth true leaf stage.
(§9) Treatments consisted of the acid or esters of 4-amino-3-chloro-5-fluoro-6-(4-chloro-2-fluoro-3-methoxy-phenyl)pyridine-2-carboxylic acid (Compound A), each formulated as an SC, and various herbicidal components alone and in combination. Forms of compound A were applied on an acid equivalent basis.
(§10) Other herbicidal components were applied on an active ingredient basis and included acetolactate synthase (ALS)-inhibiting herbicides (sulfonylurea chemical class) azimsulfuron formulated as Gulliver®, bensulfuron-methyl formulated as Londax® 60DF, cyclosulfamuron (technical material), ethoxysulfuron formulated as Sunrice® 15 WDG, flazasulfuron formulated as Katana®, flucetosulfuron formulated as Sukedachi® 1KG G, foramsulfuron formulated as Option®, imazosulfuron formulated as Brazzos® WG, iodosulfuron-methyl-sodium formulated as Hussar®, metsulfuron-methyl formulated as Lorate®, nicosulfuron formulated as Accent®, orthosulfamuron formulated as Strada® WG, primisulfuron-methyl (technical material), propyrisulfuron formulated as Zeta One®, rimsulfuron formulated as Matrix® WG, sulfometuron-methyl formulated as Oust®, and trifloxysulfuron-sodium formulated as Monument® 75WG.
(§11) Treatment requirements were calculated based upon the rates being tested, the concentration of active ingredient or acid equivalent in the formulation, and a 12 mL application volume at a rate of 187 L/ha.
(§12) For treatments comprised of formulated compounds, measured amounts of compounds were placed individually in 25 mL glass vials and diluted in a volume of 1.25% (v/v) Agri-Dex® crop oil concentrated to obtain 12× stock solutions. […] Application solutions were prepared by adding an appropriate amount of each stock solution (e.g., 1 mL) and diluted to the appropriate final concentrations with the addition of 10 mL of an aqueous mixture of 1.25% (v/v) crop oil concentrate so that the final spray solutions contained 1.25+/−0.05% (v/v) Agrcrop oil concentrate.
(§13) For treatments comprised of formulated and technical compounds, weighed amounts of the technical materials were placed individually in 25 mL glass vials and dissolved in a volume of 97:3 v/v acetone/DMSO to obtain 12× stock solutions, and measured amounts of the formulated compounds were placed individually in 25 mL glass vials and diluted in a volume of 1.25% (v/v) crop oil concentrate to obtain 12× stock solutions. […] Application solutions were prepared by adding an appropriate amount of each stock solution (e.g., 1 mL) and diluted to the appropriate final concentrations with the addition of an appropriate amount of an aqueous mixture of 1.5% (v/v) crop oil concentrate so that the final spray solutions contained 1.25% (v/v) crop oil concentrate. […]

[4] = tested on: CYPIR (Cyperus iria, rice flatsedge); assay: as above; assay type: in vivo, Cyperus iria L.; conditions: 20 DAA
From the text: as §8, §9, §10, §11, §12, §13

[5] = tested on: CYPES (Cyperus esculentus, yellow nutsedge); assay: as above; assay type: in vivo, Cyperus esculentus L.; conditions: 20 DAA
From the text: as §8, §9, §10, §11, §12, §13

[6] = tested on: BRAPP (Brachiaria platyphylla, broadleaf signalgrass); assay: as above; assay type: in vivo, Brachiaria platyphylla (Griseb.) Nash; conditions: Urochloa platyphylla, post-emergence, 480 h, 20 DAA, read-out: Visual Weed Control (%) Obs
From the text: as §8, §9, §10, §11, §12, §13

[7] = tested on: ECHOR (Echinochloa oryzoides, early watergrass); assay: In-water applied weed control, transplanted paddy rice, greenhouse (Example II); assay type: in vivo, Echinochloa oryzoides (Ard.) Fritsch
Procedure: as §1, §2, §3, §4, §5, §6, §7

[8] = tested on: CYPRO (Cyperus rotundus, purple nutsedge); assay: as above; assay type: in vivo, Cyperus rotundus L.
Procedure: as §1, §2, §3, §4, §5, §6, §7

[9] = tested on: LEFCH (Leptochloa chinensis, Chinese sprangletop); assay: as above; assay type: in vivo, Leptochloa chinensis (L.) Nees; conditions: Table 43, 17.5 gai/ha alone
Procedure: as §1, §2, §3, §4, §5, §6, §7

[10] = tested on: DIGSA (Digitaria sanguinalis, large crabgrass); assay: Postemergence foliar-applied weed control, direct seeded rice, greenhouse (Example I); assay type: in vivo, Digitaria sanguinalis (L.) Scop.; conditions: 20 DAA
From the text: as §8, §9, §10, §11, §12, §13

## COC(=O)c1sccc1S(=O)(=O)NC(=O)Nc1nc(C)nc(OC)n1 [Thifensulfuron-methyl]
[1]
  pest or weed control at 3.75 g/ha: 35%

## COc1cc(OC)nc(NC(=O)NS(=O)(=O)Nc2ccccc2C(=O)N(C)C)n1 [Orthosulfamuron, 2-[[[[[(4,6-dimethoxy-2-pyrimidinyl)amino]carbonyl]amino]sulfonyl]amino]-N,N-dimethylbenzamide]
[2]; Table 45, 60 gai/ha alone
  Visual Weed Control (%) - 20 DAA SCPMA Obs: 85%
[2]; Table 46, 60 gai/ha alone
  Visual Weed Control (%) - 20 DAA SCPMA Obs: 85%
[3]; 7.5 gai/ha
  pest or weed control at 7.5 g/ha: 0%
[3]; 15 gai/ha
  pest or weed control at 15 g/ha: 0%
[4]; 7.5 gai/ha
  Visual Weed Control (%) Obs: 50%
[4]; 15 gai/ha
  Visual Weed Control (%) Obs: 75%
[4]; 30 gai/ha
  Visual Weed Control (%) Obs: 65%
[5]; 7.5 gai/ha
  Visual Weed Control (%) Obs: 0%
[5]; 15 gai/ha
  Visual Weed Control (%) Obs: 30%
[6]; 7.5 gai/ha
  pest or weed control at 7.5 g/ha: 0%
[6]; 15 gai/ha
  pest or weed control at 15 g/ha: 30%
[7]; Table 46, 15 gai/ha alone
  Visual Weed Control (%) - 21 DAA ECHOR Obs: 10%

## COc1cc(OC)nc(NC(=O)NS(=O)(=O)c2ncccc2C(=O)N(C)C)n1 [Nicosulfuron, 2-[[[[(4,6-dimethoxy-2-pyrimidinyl)amino]carbonyl]amino]sulfonyl]-N,N-dimethyl-3-pyridinecarboxamide, reference compound]
[3]; 35 gai/ha
  pest or weed control at 35 g/ha: 75%
[8]; Table 43, 17.5 gai/ha alone
  Visual Weed Control (%) - 20 DAA CYPRO Obs: 30%
[8]; Table 43, 35 gai/ha alone
  Visual Weed Control (%) - 20 DAA CYPRO Obs: 70%
[4]; 8.75 gai/ha
  Visual Weed Control (%) Obs: 80%
[5]; 8.75 gai/ha
  Visual Weed Control (%) Obs: 10%
[5]; 17.5 gai/ha
  Visual Weed Control (%) Obs: 60%
[5]; 35 gai/ha
  Visual Weed Control (%) Obs: 70%
[9]
  Visual Weed Control (%) - 20 DAA LEFCH Obs: 60%
[7]; Table 43, 17.5 gai/ha alone
  Visual Weed Control (%) - 20 DAA ECHOR Obs: 0%
[7]; Table 44, 17.5 gai/ha alone
  Visual Weed Control (%) - 20 DAA ECHOR Obs: 0%
[7]; Table 44, 35 gai/ha alone
  Visual Weed Control (%) - 20 DAA ECHOR Obs: 50%
[10]; 8.75 gai/ha
  Visual Weed Control (%) Obs: 30%
[10]; 17.5 gai/ha
  Visual Weed Control (%) Obs: 55%
